ChEMBL document CHEMBL2074037, “Molecular characterization and tissue distribution of a new organic anion transporter subtype (oatp3) that transports thyroid hormones and taurocholate and comparison with oatp2” (J Biol Chem, 1998)

Assays:
[1] = molecular target: T1, Solute carrier organic anion transporter family member 1A4 (Rattus norvegicus, UniProt O35913); assay: TP_TRANSPORTER: inhibition of Taurocholate uptake (Taurochorate: 1 uM, T3: 200 uM, data not shown) in Xenopus laevis oocytes; type: functional, cell-based; settings: oocyte
T1 sequence (O35913 whole entry): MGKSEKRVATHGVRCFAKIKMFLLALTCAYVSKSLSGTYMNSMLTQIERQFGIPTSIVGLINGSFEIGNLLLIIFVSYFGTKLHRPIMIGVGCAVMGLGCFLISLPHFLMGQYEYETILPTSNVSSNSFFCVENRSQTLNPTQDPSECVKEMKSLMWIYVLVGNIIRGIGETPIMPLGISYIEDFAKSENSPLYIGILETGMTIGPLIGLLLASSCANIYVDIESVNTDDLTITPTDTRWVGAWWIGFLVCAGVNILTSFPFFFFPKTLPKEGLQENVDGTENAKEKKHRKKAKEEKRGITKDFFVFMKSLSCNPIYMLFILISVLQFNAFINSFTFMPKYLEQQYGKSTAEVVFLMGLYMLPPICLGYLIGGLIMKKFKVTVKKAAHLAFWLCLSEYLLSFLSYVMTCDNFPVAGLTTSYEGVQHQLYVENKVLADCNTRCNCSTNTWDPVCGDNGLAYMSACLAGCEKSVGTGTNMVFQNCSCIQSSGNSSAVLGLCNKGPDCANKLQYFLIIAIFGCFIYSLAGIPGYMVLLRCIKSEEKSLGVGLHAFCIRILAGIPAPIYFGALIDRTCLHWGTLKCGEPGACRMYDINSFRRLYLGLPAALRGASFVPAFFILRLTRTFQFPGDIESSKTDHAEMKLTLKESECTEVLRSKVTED

[2] = molecular target: T1, Solute carrier organic anion transporter family member 1A4; assay: TP_TRANSPORTER: inhibition of Taurocholate uptake (Taurochorate: 1 uM, BSP: 200 uM, data not shown) in Xenopus laevis oocytes; type: functional, cell-based; settings: oocyte
[3] = molecular target: T1, Solute carrier organic anion transporter family member 1A4; assay: TP_TRANSPORTER: inhibition of Taurocholate uptake (Taurochorate: 1 uM, E217betaG: 200 uM, data not shown) in Xenopus laevis oocytes; type: functional, cell-based; settings: oocyte
[4] = molecular target: T1, Solute carrier organic anion transporter family member 1A4; assay: TP_TRANSPORTER: inhibition of Taurocholate uptake (Taurochorate: 1 uM, T4: 200 uM, data not shown) in Xenopus laevis oocytes; type: functional, cell-based; settings: oocyte
[5] = substrate: N[C@@H](Cc1cc(I)c(Oc2ccc(O)c(I)c2)c(I)c1)C(=O)O; assay: (§1) TP_TRANSPORTER: uptake in Xenopus laevis oocytes; type: functional, cell-based, Oocyte
[6] = substrate: N[C@@H](Cc1cc(I)c(Oc2cc(I)c(O)c(I)c2)c(I)c1)C(=O)O; assay: as §1; type: functional, cell-based, Oocyte

N[C@@H](Cc1cc(I)c(Oc2ccc(O)c(I)c2)c(I)c1)C(=O)O [LIOTHYRONINE]
Activity [1]: inhibitor [+]

O=C1OC(c2ccc(O)c(S(=O)(=O)[O-])c2)(c2ccc(O)c(S(=O)(=O)[O-])c2)c2c(Br)c(Br)c(Br)c(Br)c21.[Na+].[Na+] [SULFOBROMOPHTHALEIN SODIUM]
Activity [2]: inhibitor [+]

C[C@]12CC[C@@H]3c4ccc(O)cc4CC[C@H]3[C@@H]1CC[C@@H]2O[C@@H]1O[C@H](C(=O)O)[C@@H](O)[C@H](O)[C@H]1O [ESTRADIOL 17B GLUCURONIDE]
Activity [3]: inhibitor [+]

N[C@@H](Cc1cc(I)c(Oc2cc(I)c(O)c(I)c2)c(I)c1)C(=O)O [LEVOTHYROXINE]
Activity [4]: inhibitor [+]

B1: Solute carrier organic anion transporter family member 1A4 (Rattus norvegicus) (protein)
chain: MGKSEKRVATHGVRCFAKIKMFLLALTCAYVSKSLSGTYMNSMLTQIERQFGIPTSIVGLINGSFEIGNLLLIIFVSYFGTKLHRPIMIGVGCAVMGLGCFLISLPHFLMGQYEYETILPTSNVSSNSFFCVENRSQTLNPTQDPSECVKEMKSLMWIYVLVGNIIRGIGETPIMPLGISYIEDFAKSENSPLYIGILETGMTIGPLIGLLLASSCANIYVDIESVNTDDLTITPTDTRWVGAWWIGFLVCAGVNILTSFPFFFFPKTLPKEGLQENVDGTENAKEKKHRKKAKEEKRGITKDFFVFMKSLSCNPIYMLFILISVLQFNAFINSFTFMPKYLEQQYGKSTAEVVFLMGLYMLPPICLGYLIGGLIMKKFKVTVKKAAHLAFWLCLSEYLLSFLSYVMTCDNFPVAGLTTSYEGVQHQLYVENKVLADCNTRCNCSTNTWDPVCGDNGLAYMSACLAGCEKSVGTGTNMVFQNCSCIQSSGNSSAVLGLCNKGPDCANKLQYFLIIAIFGCFIYSLAGIPGYMVLLRCIKSEEKSLGVGLHAFCIRILAGIPAPIYFGALIDRTCLHWGTLKCGEPGACRMYDINSFRRLYLGLPAALRGASFVPAFFILRLTRTFQFPGDIESSKTDHAEMKLTLKESECTEVLRSKVTED
Km [5]: 5.87 µM | Km [6]: 6.53 µM

B2: Solute carrier organic anion transporter family member 1A5 (Rattus norvegicus) (protein)
chain: MGETEKRVATHEVRCFSKIKMFLLALTWAYVSKSLSGIYMNTMLTQIERQFDIPTSIVGFINGSFEIGNLLLIIFVSYFGTKLHRPIMIGVGCVIMGLGCFLMSLPHFLMGRYEYETTISPTSNLSSNSFLCMENRSQTLKPTQDPAECIKEMKSLMWIYVLVGNIIRGIGETPIMPLGISYIEDFAKSENSPLYIGILETGKVFGPIVGLLLGSFCASIYVDTGSVNTDDLTITPTDTRWVGAWWIGFLICAGVNILSSIPFFFFPKTLPKEGLQDDVDGTNNDKEEKHREKAKEENRGITKDFLPFMKSLSCNPIYMLLILTSVLQINAFINMFTFLPKYLEQQYGKSTAEVVLLIGVYNLPPICIGYLLIGFIMKKFKITVKKAAYMAFCLSLFEYLLYFLHFMITCDNFPVAGLTASYEGVHHPLYVENKVLADCNRGCSCSTNSWDPVCGDNGLAYMSACLAGCKKSVGTGTNMVFQNCSCIRSSGNSSAVLGLCKKGPECANKLQYFLIMSVIGSFIYSITAIPGYMVLLRCIKPEEKSLGIGLHAFCTRVFAGIPAPIYFGALIDRTCLHWGTLKCGEPGACRMYNINNFRRIYLVLPAALRGSSYLPALFILILMRKFQFPGEIDSSETELAEMKITVKKSECTDVHGSPQVENDGELKTRL
Km [5]: 7.33 µM | Km [6]: 4.93 µM
